Measured values as given in US11696938B2, “Human cancer cell metastasis inhibitory agent and human cancer cell determination agent” (priority 2017, dated 2023).

Legend:
OV2944 cells [1] = experiment: Cell binding experiment (fluorescently labeled protein/peptide, confocal microscope); parameters: species or system mouse
Procedure: The OV2944-HM-1 cell line (which may be referred to as “OV2944 cells” or, simply, “cells”), which is a commonly used cell line, was used. OV2944 cells were obtained from RIKEN BioResource Center (Cell No. RCB1483), and cultured in DMEM medium (+10% FBS) according to a conventional method.
Cultured cells were fixed on a glass plate (4% paraformaldehyde/phosphate buffer, room temperature, 10 minutes), and treated with sheep serum. Thereafter, mouse dicalcin (5 μM) fluorescently labeled with tetramethylrhodamine (TMR) was reacted with the cells in the presence of 1 mM CaCl2 (4° C., overnight). After washing with TBS buffer, analysis was carried out using a confocal microscope (Carl Zeiss). Further, cell nuclei were stained with DAPI.
An experiment was carried out in the same manner as in Experimental Example 1-1 except that the reaction was carried out in the presence of 1 mM EGTA (which may be referred to as “in the absence of calcium”).
An experiment was carried out in the same manner as in Experimental Example 1-1 except that immunostaining was carried out using an anti-mouse dicalcin antibody (Catalog No. MAB5167, R&D Systems) as a primary antibody, and an Alexa Fluor (registered trademark) 594-labeled anti-rat IgG antibody (Catalog No. A11007, Invitrogen) as a secondary antibody.
An experiment was carried out in the same manner as in Experimental Example 1-1 except that each of partial peptides p1 to p7 (5 μM) fluorescently labeled with rhodamine was used.

OV2944 cells [2] = experiment: Cell invasion assay (Matrigel Invasion Chamber); format: cell-based, mouse
Procedure: Cell invasion was analyzed using a BD BioCoat (registered trademark) Matrigel Invasion Chamber (Becton, Dickinson and Company). First, a certain amount of cells (about 1×10^5 cells/well) were treated with 2 μM, 8 μM, or 20 μM mouse dicalcin at room temperature for 20 minutes.
The treated cells were washed by centrifugation treatment, and then plated in the upper chamber of a transwell preliminarily coated with Matrigel, followed by performing culture using DMEM (+10% FBS) as a medium.
About 16 hours later, the invading cells that had migrated into the lower chamber were fixed using 4% paraformaldehyde/phosphate buffer at room temperature for 10 minutes, and then stained with crystal violet, followed by excision of the membrane, embedding on a slide, and counting of the cell number.

OV2944 cells [3] = experiment: Cell migration assay; format: cell-based, mouse; conditions: 5 μM; versus p1 and no peptide
Procedure: The plasmid vector pDsRed2-C1 (Clontech), which expresses a fluorescent protein (DsRed2), was transfected into cells. […] The observation was carried out for 12 to 37 cells. Statistical analysis was carried out by unpaired Student t-test in order to analyze a significant difference.
An experiment was carried out in the same manner as in Experimental Example 8-1 except that no partial peptide was added.

[4] = test system: OV2944 cells expressing the fluorescent protein tdTomato; experiment: Observation of metastasis to liver after intraperitoneal cell transfer; format: in vivo, mouse; conditions: 3 nmoles/two days, Day 21, versus control peptide p1
Procedure: The plasmid vector ptdTomato-C1 (Clontech), which expresses the fluorescent protein tdTomato, was transfected into OV2944 cells, and, 24 to 48 hours later, the cells were suspended in phosphate buffer. Using a flow cytometer (FACS Aria, BD Biosciences), the OV2944 cells expressing the fluorescent protein tdTomato shown in FIG. 13A to FIG. 13C were purified.
(§1) The purified OV2944 cells expressing the fluorescent protein tdTomato were transferred into the abdominal cavity of mice (B6C3F1 strain, 9 weeks old, female, CLEA Japan, Inc.) (1×10^5 cells/mouse). […] On Day 21, the abdominal organs were removed, and OV2944 cells expressing the fluorescent protein tdTomato in the liver were observed using a fluorescence stereomicroscope OV110 (Olympus Corporation).
FIG. 15-1B focuses on cell colonies. […] The number of colonies was counted, and a significant difference was analyzed by unpaired Student t-test.

OV2944 cells [5] = experiment: Analysis of survival after cell transfer (Kaplan Meier); format: in vivo, mouse
Procedure: as §1
Intraperitoneal injection was carried out in the same manner as in Experimental Example 13-1 and Experimental Example 13-2, and survival analysis was carried out thereafter to provide Experimental Example 14-1 and Experimental Example 14-2. For the survival curve according to the Kaplan Meier method, a significant difference was analyzed by log-rank test.

[6] = Glycolipid sugar chain array binding experiment; conditions: 5 μM fluorescently labeled, 4° C. overnight
[7] = test system: GM1b on the plasma membrane of OV2944 cells; experiment: GM1b inhibition assay in relation to binding of partial peptide p6 to OV2944 cells; parameters: species or system mouse; conditions: 5 μM TMR-labeled p6
Procedure: Cultured OV2944 cells were fixed on a glass plate (4% paraformaldehyde/phosphate buffer, room temperature, 10 minutes), and treated with sheep serum. […] After washing, analysis was carried out using a confocal microscope (Carl Zeiss).
An experiment was carried out in the same manner as in Experimental Example 18-1 except that GM1b was absent.
Further, an experiment was carried out in the same manner as in Experimental Example 18-1 and Experimental Example 18-2 for cases where GM1b was used alone at a concentration of 0, 10, or 100 μM, where GT1c was used alone at a concentration of 100 μM, and where GM1b and GT1c were used in combination at a concentration of 100 μM each.

Erk1/2 = experiment: Suppression of Erk1/2 signaling (Western blotting, pErk/Erk); format: cell-based, mouse
Excerpt: The OV2944 cells were extracted and sonicated, and then analyzed for the activity of Erk1/2 by Western blotting. An antibody (Cell Signaling) against Erk1/2 protein in the phosphorylated state (that is, the activated state) (pErk1/2), or an antibody (Santa Cruz) against total Erk1/2 protein including the protein in the phosphorylated state and the protein in the dephosphorylated state (Erk1/2), was used therefor. The ratio between pErk1/2 and Erk1/2 (pErk/Erk) in the Western blot image was calculated, and the data were normalized by taking the value at time 0 as 1.

**Q.** For “partial peptide of mouse dicalcin, SEQ ID NO: 17, QLDFQEFLNLI (listed as Mus musculus) [p6]”, which “cell-binding ability (fluorescence intensity)” value (OV2944 cells [1]; 5 μM rhodamine-labeled partial peptides, ranking) is on record?
**A.** The value was “highest cell-binding ability”.

**Q.** What about the “site of binding on cells” value (OV2944 cells [1]; 5 μM, CD44 as plasma membrane control) of the same substance?
**A.** Its value is “binds to the plasma membranes of cells”.

**Q.** And the “cell invasion, ranking of suppression” value (OV2944 cells [2]; 8 μM each, versus 10 μM BSA)?
**A.** Its value is “suppresses cell invasion at the highest level”.

**Q.** And the “cell invasion, concentration dependence” value (OV2944 cells [2]; 0.2, 0.8, 2, 8, 20 μM)?
**A.** Its value is “suppressed cell invasion in a concentration-dependent manner”.

**Q.** And the “cell migration (migration distance)” value (OV2944 cells [3])?
**A.** Its value is “suppresses migration of the cells”.

**Q.** And the “number of colonies in the liver” value [4]?
**A.** The value was “significantly smaller”.

**Q.** And the “increase in average number of days of survival” value (OV2944 cells [5]; Experimental Example 14-1 relative to 14-2 (p1))?
**A.** Its value is 21%.

**Q.** What about the “average number of days of survival” value (OV2944 cells [5]; intraperitoneal, 3 nmoles/two days) of the same substance?
**A.** The value was 38.5 days.

**Q.** What about the “survival rate of mice” value (OV2944 cells [5]; intraperitoneal, 3 nmoles/two days, versus control peptide p1, log-rank test) of the same substance?
**A.** Its value is “significantly suppresses a decrease in the survival rate”.

**Q.** And the “target molecule candidate by binding to glycolipid sugar chains” value [6]?
**A.** The value was “GM1b ganglioside was suggested”.

**Q.** What about the “binding to OV2944 cell / plasma membrane in presence of GM1b” value ([7]; GM1b in the medium (10, 100 μM)) of the same substance?
**A.** The value was “remarkably decreased”.

**Q.** And the “binding ability to OV2944 cells in presence of GT1c” value ([7]; GT1c 100 μM)?
**A.** Its value is “did not change”.

**Q.** What about the “Erk1/2 activity (pErk/Erk)” value (Erk1/2; 5 μM p6 alone (absence of GM1b), 0-30 minutes) of the same substance?
**A.** Its value is “suppresses the Erk1/2 activity”.

**Q.** And the “Erk1/2 activity (pErk/Erk) with GM1b present” value (Erk1/2; p6 and GM1b present)?
**A.** Its value is “disappearance of the Erk-suppressing action”.
